The values that follow come from patent US11246818B2, “Peptides and compositions for use in cosmetics” (LIPOTRUE, S.L., priority 2017, dated 2022).

Assay [1] is described as follows: DPPH free radical scavenging assay in tubo. In kind it is biochemical. The text has this: The capacity to scavenge the stable DPPH free radical can be expressed as a measure of antioxidant activity.
During this assay, the purple chromogen (DPPH) radical was reduced by antioxidant/reducing compounds to the corresponding pale-yellow hydrazine. The reduction of the purple chromogen radical by hydrogen-donating antioxidants was monitored by the decrease of optical density at long wavelengths (515-520 nm).
Ascorbic acid was also included in the assay as positive control for scavenger activity evaluation at 30 μM and 60 μM. After 30 minutes of incubation at room temperature and gentle shaking, the absorbance at 520 nm of each well was determined using the microplate reader Multiskan FC (Thermo Fisher Scientific, MA, USA), being directly proportional to the amount of DPPH left (not-scavenged) in the reaction mixture. Absorbance values were normalized on the basis of the control (non-treated wells) which was stablished as 100%, obtaining the corresponding percentage of activity for each of the treatments.
(In general: Loss of DPPH colour is used to gauge radical scavenging.)

Assay [2] in a line: Trolox Equivalent Antioxidant Capacity (TEAC), ABTS Decolorization Assay. It is filed as biochemical. The protocol: As positive controls of the assay, ascorbic acid 2-glucoside (hereinafter, AA-2G) and magnesium ascorbyl phosphate (hereinafter, MAP) were tested.
TEAC assay was used in this case. Said assay measures the antioxidant capacity of a given substance, as compared to the standard, Trolox, an analogue of Vitamin E.
Antioxidant capacity was measured using the ABTS Decolorization Assay. In this assay, the pre-formed radical monocation of 2,2′-azinobis-(3-ethylbenzothiazoline-6-sulfonic acid) (ABTS*+) was generated by oxidation of ABTS with potassium persulfate and was reduced in the presence of antioxidants (Ac-SEQ ID NO: 1-NH2, Ac-SEQ ID NO: 2-NH2, Ac-SEQ ID NO: 3-NH2 or Ferulic acid-SEQ ID NO: 2-NH2). The ABTS.+ has a blue-green color, with maximum absorptions at 650, 734 and 820 nm. Antioxidants in the sample reduce ABTS.+ suppressing this color production to a degree that is proportional to their concentrations and antioxidant capacity. Quantification of absorbance was conducted at 734 nm using a Polarstar Omega equipment (BMG Labtech).

The subject of assay [3] is Primary human epidermal melanocytes. Kind of assay: Brightening activity: intracellular melanin content. It is filed as cell-based. The settings on record: 7 days; for decrease in melanin content compared with positive reference control (kojic acid): 70 μM kojic acid. The protocol:
Two concentrations of kojic acid were used as positive control.
(§1) Kojic acid was used as positive control.
Primary human epidermal melanocytes were incubated in 6-well plates for 4 days and then treated with the compounds to be analysed (Ac-SEQ ID NO: 1-NH2, Ac-SEQ ID NO: 2-NH2, Ac-SEQ ID NO: 3-NH2 or Ferulic acid-SEQ ID NO: 2-NH2) for 7 days. After treatment, cells were homogenized an intracellular melanin content was quantified by absorbance at 450 nm by Multiskan FC (Thermo Fisher Scientific, MA, USA).

The test system of assay [4] is HEMn cells. The experiment in a line: Gene expression of melanogenic pathways, HEMn cells, 11-day treatment (RTqPCR). It is filed as cell-based, human. The text has this: Changes in gene expression levels are represented as a positive or negative fold-change with regard to the basal control (untreated cells). For FIG. 16(A), bars from top to bottom in the y-axis refer to: COX-1 (Cyclooxigenase-1), MITF ([…]), MC1R (Melanocortin-1 receptor), MLAN-A (Melanoma antigen recognized by T-cells), C-KIT (Protoongogen receptor tyrosine kinase KIT), PMEL17 (Pre-melanosome protein), DCT-TYRP2 (Dopachrome tautomerase), TYRP-1 (Tyrosinase related protein 1) and TYR (Tyrosinase). For FIG. 16(B), bars from top to bottom in the y-axis refer to: BLOC-1 (Biogenesis of lysosome-related organelles complex-1), MITF ([…]), MC1R (Melanocortin-1 receptor), MLAN-A (Melanoma antigen recognized by T-cells), C-KIT (Protoongogen receptor tyrosine kinase KIT), PMEL17 (Pre-melanosome protein), DCT-TYRP2 (Dopachrome tautomerase), TYRP-1 (Tyrosinase related protein 1) and TYR (Tyrosinase). The x-axis refers to fold change versus basal control.
Changes in gene expression levels are represented as a positive or negative fold-change with regard to the basal control (untreated cells). Bars from top to bottom in the y-axis refer to: VDR (Vitamin D receptor), PMEL17 (Pre-melanosome protein) and DCT-TYRP2 (Dopachrome tautomerase). The x-axis refers to fold change versus basal control.
In the case of HEMn cells, cells were left in culture for 12 days (from day 0 to day 11, 11-day treatment) at standard culture conditions (37° C., 95% humidity, 5% CO2) and treated with non-cytotoxic concentrations of Ac-SEQ ID NO: 3-NH2 (0.1 mg/mL) or Ferulic acid-SEQ ID NO: 2-NH2 (0.05 mg/mL) from day 4 to day 11.
(§2) Untreated cells were used as basal control. Cells were then lysed for RNA extraction with a RNA purification commercial kit following manufacturer instructions (RNeasy mini kit, Qiagen, Netherlands). RNA was then quantified by nanodrop, adjusted in concentration and processed for retrotranscription to cDNA using a commercially available kit (High-Capacity cDNA Reverse Transcription kit—Thermofisher Scientific, USA). Resulting cDNA was used to perform a RTqPCR (Real Time Quantitative Polymerase Chain Reaction) using Taqman technology and a panel of probes designed to target specific genes related to melanogenesis and HEMn-HEKa and HEMn-HDFa communication.

In assay [5] the test system is HEMn cells. The experiment in a line: Gene expression of melanogenic pathways, HEMn cells, 24-hour treatment (RTqPCR). In kind it is cell-based, human. The following applies: 0.1 mg/mL, treatment at 24 h. The text has this: Changes in gene expression levels are represented as a positive or negative fold-change with regard to the basal control (untreated cells). For FIG. 16(A), bars from top to bottom in the y-axis refer to: COX-1 (Cyclooxigenase-1), MITF ([…]), MC1R (Melanocortin-1 receptor), MLAN-A (Melanoma antigen recognized by T-cells), C-KIT (Protoongogen receptor tyrosine kinase KIT), PMEL17 (Pre-melanosome protein), DCT-TYRP2 (Dopachrome tautomerase), TYRP-1 (Tyrosinase related protein 1) and TYR (Tyrosinase). […]
Untreated cells were used as basal control. […] RNA was then quantified by nanodrop, adjusted in concentration and processed for retrotranscription to cDNA using a commercially available kit (High-Capacity cDNA Reverse Transcription kit—Thermofisher Scientific, USA). Resulting cDNA was used to perform a RTqPCR (Real Time Quantitative Polymerase Chain Reaction) using Taqman technology and a panel of probes designed to target specific genes related to melanogenesis and HEMn-HEKa and HEMn-HDFa communication.
On the technique in general: In qPCR the cycle at which signal appears reflects the starting amount.

In assay [6] the test system is recombinant mushroom tyrosinase. Kind of assay: Mushroom tyrosinase activity in tubo (L-DOPA). It is filed as biochemical. The protocol:
as §1, §1
After 2 hours' reaction at room temperature, the absorbance at 450 nm of each well was determined using the microplate reader Multiskan FC (Thermo Fisher Scientific, MA, USA), which is directly proportional to the amount of dopachrome in the reaction mixture.

A further assay relates to HEKa cells. Kind of assay: Gene expression of HEMn-HEKa communication and melanogenic factors, HEKa cells, 24-hour treatment (RTqPCR). In kind it is cell-based, human.
Excerpt: Changes in gene expression levels are represented as a positive or negative fold-change with regard to the basal control (untreated cells). Bars from top to bottom in the y-axis refer to: KITLG (KIT ligand), TP53 (Tumor protein p53), DKK1 (Dickkopf-related protein 1) and NGF (Nerve growth factor). The x-axis refers to fold change verus basal control.
Changes in gene expression levels are represented as a positive or negative fold-change with regard to the basal control (untreated cells). Bars from top to bottom in the y-axis refer to: KITLG (KIT ligand), POMC (Pro-opiomelanocortin), EDN1 (Endothelin-1) and NGF (Nerve growth factor). The x-axis refers to fold change versus basal control.
Briefly, HEKa cells were seeded in duplicate in 6-well plates at a density of 4×10^5 cells/well and maintained at standard culture conditions (37° C., 95% humidity, 5% CO2) for 24 hours. Then, cells were treated with non-cytotoxic concentrations of Ac-SEQ ID NO: 3-NH2 (0.1 mg/mL) or Ferulic acid-SEQ ID NO: 2-NH2 (0.05 mg/mL) for an additional 24 hours.
as §2

In the case of `O=C1O[C@H]([C@@H](O)CO)C(O)=C1O` [ascorbic acid, reference compound], the “reduction of DPPH” value in assay [1] (30 μM, positive control) is 31.3%; in assay [1] (60 μM, positive control), 67.6%.
Take “Ac-His-Trp-Phe-Lys-NH2 (Ac-HWFK-NH2) [Ac-SEQ ID NO: 2-NH2]”: the trolox equivalents amounted to 22 µM in assay [2] (0.05 mg/mL), 49 µM in assay [2] (0.1 mg/mL) and 130 µM in assay [2] (0.5 mg/mL). Also, in assay [2] (the higher concentration tested (0.5 mg/mL)), the “antioxidant power compared with AA-2G and MAP” value was “higher antioxidant power than AA-2G and MAP”. Moreover, in assay [3] (all the concentrations tested (0.01, 0.05, 0.1 mg/ml), kojic acid 10 and 50 μM), the “brightening or whitening activity compared with kojic acid” value is reported as “significantly higher brightening or whitening activity”. Moreover, the “increased brightening activity relative to the activity of the two concentrations of kojic acid” value in assay [3] (all the concentrations tested, kojic acid 10 and 50 μM) is on record as “two to more than four times”.
As for “Ac-Leu-His-Trp-Phe-Arg-Ala-NH2 (Ac-LHWFRA-NH2) [Ac-SEQ ID NO: 3-NH2]”, in the assay with HEMn cells [4] (0.1 mg/mL), the “C-KIT gene expression, fold change versus basal control” value was −1.78 fold change; the “COX-1 gene expression, fold change versus basal control” value was −1.51 fold change; the “DCT-TYRP2 gene expression, fold change versus basal control” value is reported as −1.40 fold change; the “MC1R gene expression, fold change versus basal control” value is recorded as −1.28 fold change. Further, in the assay with HEMn cells [4] (0.1 mg/mL), the “MITF gene expression, fold change versus basal control” value was −1.48 fold change; the “MLAN-A gene expression, fold change versus basal control” value is given as −1.88 fold change; the “PMEL17 gene expression, fold change versus basal control” value is given as −2.30 fold change; the “TYR gene expression, fold change versus basal control” value was −1.66 fold change. Further, the “TYRP-1 gene expression, fold change versus basal control” value with HEMn cells [4] (0.1 mg/mL) was −1.64 fold change. Besides, the “expression of genes of the melanogenic pathway” value in the assay with HEMn cells [5] is listed as “tendency to downregulate gene expression was also observed”. The trolox equivalents in assay [2] (0.01 mg/mL) worked out at 28 µM. Besides, the trolox equivalents in assay [2] (0.05 mg/mL) is 59 µM. In addition, the trolox equivalents in assay [2] (0.1 mg/mL) came out at 74 µM. Besides, the “decrease in tyrosinase activity” value in assay [6] (0.5 mg/mL) is on record as 30.6%. Also, the “decrease in tyrosinase activity” value in assay [6] (1 mg/mL) is recorded as 58.1%. For the same molecule, the “decrease in melanin content” value in assay [3] (0.1 mg/mL) is 49.3%. Moreover, in assay [3], the “decrease in melanin content compared with positive reference control (kojic acid)” value was “higher than the positive reference control”. Besides, in the assay with HEKa cells (0.1 mg/mL), the DKK-1 gene expression result was “upregulation”, the KITLG gene expression entry is on record as “downregulation”, the NGF gene expression result is listed as “downregulation” and the TP53 gene expression entry is recorded as “downregulation”.
For “Ferulic acid-His-Trp-Phe-Lys-NH2 [Ferulic acid-SEQ ID NO: 2-NH2]”, the “reduction of DPPH” value in assay [1] (0.05 mg/mL, 300 μM DPPH, 30 minutes) was determined as 48.3%; in assay [1] (0.1 mg/mL, 300 μM DPPH, 30 minutes), 72.9%; in assay [1] (0.5 mg/mL, 300 μM DPPH, 30 minutes), 90.6%. In addition, the DCT-TYRP2 expression entry in the assay on HEMn cells [4] (0.05 mg/mL) was “slight tendency to downregulate”. Besides, in the assay on HEMn cells [4] (0.05 mg/mL), the PMEL17 expression result is “slight tendency to downregulate”. For the same molecule, in the assay on HEMn cells [4] (0.05 mg/mL), the “VDR gene expression, fold change versus basal control” value stood at 1.48 fold change. In addition, the trolox equivalents in assay [2] (0.01 mg/mL) amounted to 59 µM; in assay [2] (0.05 mg/mL) it was 112 µM; in assay [2] (0.1 mg/mL), 113 µM. Moreover, in assay [2] (at this same concentration (0.05 mg/mL)), the “antioxidant power compared with MAP” value is listed as “equals MAP values of trolox equivalents”. The “antioxidant power compared with AA-2G” value in assay [2] (concentrations >0.05 mg/mL) is “higher than the one of AA-2G”. In addition, the figures for the “decrease in tyrosinase activity” value in assay [6] (0.05 mg/mL), in assay [6] (0.1 mg/mL) and in assay [6] (0.5 mg/mL) were 12%, 46.5% and 71%, respectively. The “decrease in melanin content” value in assay [3] (0.05 mg/mL) is reported as 36%. The “decrease in melanin content compared with positive reference control (kojic acid)” value in assay [3] is given as “comparable”. For the same molecule, the EDN1 gene expression result in the assay on HEKa cells (0.05 mg/mL) was “downregulation”. Moreover, the KITLG gene expression entry with HEKa cells (0.05 mg/mL) is reported as “downregulation”. Further, the NGF gene expression result in the assay on HEKa cells (0.05 mg/mL) is “downregulation”. Further, the POMC gene expression result in the assay with HEKa cells (0.05 mg/mL) is reported as “downregulation”.
